Results from paper PMC11851430, “Workflow for E3 Ligase Ligand Validation for PROTAC Development” (ACS Chemical Biology, 2025).

Legend:
AURKA = target: T1, AURKA (Homo sapiens, UniProt O14965); assay: NanoBRET target engagement assay, intact and permeabilized cells; conditions: mean of duplicates, ^a values estimated by extrapolation
T1 sequence (O14965 1-403): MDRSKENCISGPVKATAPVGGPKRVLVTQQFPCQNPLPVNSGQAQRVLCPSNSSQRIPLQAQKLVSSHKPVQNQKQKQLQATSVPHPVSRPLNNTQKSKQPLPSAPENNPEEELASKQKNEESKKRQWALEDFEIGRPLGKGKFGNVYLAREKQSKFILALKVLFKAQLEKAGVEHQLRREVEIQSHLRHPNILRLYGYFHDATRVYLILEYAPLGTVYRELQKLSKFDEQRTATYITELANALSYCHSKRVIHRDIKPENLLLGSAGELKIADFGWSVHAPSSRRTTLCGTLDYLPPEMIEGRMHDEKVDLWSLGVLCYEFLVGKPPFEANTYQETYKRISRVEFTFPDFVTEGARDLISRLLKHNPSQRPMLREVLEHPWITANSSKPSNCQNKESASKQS
Procedure: Compounds were pipetted at various concentrations using an Echo acoustic dispenser (Labcyte), immediately followed by Tracer K10 (Promega, Tracer DB ID: T000008) for AAK1 and Aurora A and VHL Tracer (Promega, Tracer DB ID: T000019) for VHL, at an optimum KD concentration chosen from TracerDB ( tracerdb.org), respectively.
To measure the BRET signal, the NanoBRET® NanoGlo Substrate (Promega:
N1573) was added as per the manufacturer’s protocol, and filtered luminescence was measured on a PHERAstar plate reader (BMG Labtech) equipped with a luminescence filter pair (450 nm BP filter (donor) and 610 nm LP filter (acceptor)). For NanoBRET® measurement in permeabilized cells, 25 nL of digitonin (0.05 μg/μL) was pipetted into each well using an
After incubation, the BRET signals were measured by a PHERAstar plate reader (BMG Labtech) following the same procedure as intact NanoBRET® measurement. Competitive displacement data were then normalized to controls and were plotted using GraphPad Prism 9 software employing a normalized 3-parameter curve fit with the following equation:

VHL = VHL (Homo sapiens, UniProt P40337); assay: cell-based; set-up: full-length, NanoLuc fusion (Promega N2741); species or system HEK293T; NanoBRET VHL tracer displacement in permeabilized cells, NanoLuc-VHL fusion; conditions: permeabilized cells; read-out: VHL permeabilized (IC50±sd)/µM
[1] = test system: kinase protein levels in Jurkat cells; assay: TMT-labeled quantitative proteomics; format: cell-based, human; conditions: for kinase degradation / AURKA degradation in proteomic experiments: Jurkat cells, 1 μM, 6 h; for AURKA degradation in proteomic experiments: cutoff log2(fold change) ≥ 0.60; for log2FC (compound/DMSO): Jurkat
Procedure: cultured in RPMI (Thermo: 11875093) supplemented as mentioned above. Cells were seeded in 6 well plates (Greiner: 657160) at a cell density of 1·10 6 cells/well and left at 37 °C and 5% […]
50 µl of SDS Lysis Buffer (2% SDS, 50 mM TRIS pH 8.5, 10 mM TCEP, 40 mM CAA) was added to each sample. Cells were transferred into low binding reaction tubes (Eppendorf:
0030108116) and samples were boiled for 15 minutes at 95 °C and sonicated for 2 minutes.
Methanol/Chloroform Precipitation. 200 µl of methanol and 50 µl of chloroform were added to each sample reaction tube and mixed via vortex. 150 µl of milliQ-H2O were added and samples were vortexed further. Samples were centrifuged for 5 minutes at 15000 g and the aqueous layer above the interphase was removed. 150 µl of methanol was added, samples were vortexed and centrifuged for 10 minutes at 15000 g to precipitate the pellet. The aforementioned wash procedure was repeated twice before transferring the pellet to a new low bind reaction tube in which it was allowed to dry for 5 minutes.
Dissolving the Protein Pellet and Protein Quantification. 50 µl of digestion buffer (8 M Urea, 50 mM TRIS pH 8) was added to each sample before vortexing and shaking at 750 rpm at room temperature for 10 minutes to solubilize the pellet. Protein quantification via PierceTM BCA Protein Assay Kit (Thermo: 23225) was carried out according to manufacturer’s protocol.
Protein Digestion. Samples were diluted 1:2 with 50 mM TRIS pH 8.5 to reach a final concentration of 4 M Urea. Lys-C (Promega: VA1170) was added at a 1:100 enzyme/substrate ratio. Samples were agitated at 550 rpm and 37 °C for 3 h. Samples were further diluted with 50 mM TRIS pH 8.5 to a final concentration of 1 M Urea and Trypsin (Promega: V5280) was added at a 1:100 enzyme/substrate ratio. Samples were agitated overnight at 550 rpm and 37 °C. The digestion was stopped the following day via addition of TFA to a final concentration […]
Solid Phase Extraction via C18 Cartridges. Sep-Pak C18 Cartridges (Waters: WAT054955) were used for solid phase extraction of digested peptides. For preconditioning of C18 cartridges, 1 mL of methanol was added to each column followed by 1 mL of solution B (0.1% formic acid, 80% acetonitrile) and 1 mL of solution A (0.1% formic acid, ddH2O) twice. Samples […]
were loaded to their respective columns and once samples had passed, columns were washed twice with solution A to remove unwanted components from the loading step. Elution of samples was carried out via introduction of 40% and 60% acetonitrile steps. Samples were dried and snap frozen in liquid nitrogen.
TMT-Labeling. Desalted peptides were dried and resuspended in TMT-labeling buffer (200 mM EPPS pH 8.2, 20% acetonitrile). 10 μg of peptides per condition were subjected to TMT labeling with 1:2.5 peptide TMT ratio (w/w) for 1 h at room temperature. The labeling reaction was quenched by addition of hydroxylamine to a final concentration of 0.5% and incubation at room temperature for 15 minutes. Successful TMT labeling was verified by mixing equimolar ratios of peptides and subjecting the mix to single shot LC-MS/MS analysis. For high pH reversed phase fractionation on a Dionex analytical HPLC, 50 µg of pooled and purified TMT labelled samples were resuspended in 10 mM ammonium-bicarbonate (ABC), 5% acetonitrile, […]
particle size; Phenomenex) using a multistep gradient from 100% solvent A (5% acetonitrile, 10 mM ABC in water) to 60% solvent B (90% acetonitrile, 10 mM ABC in water) over 70 minutes. Eluting peptides were collected every 45 seconds into a total of 96 fractions, which were cross-concatenated into 24 fractions and dried in a vacuum concentrator and resuspended in 3% acetonitrile with 0.1% TFA for LC-MS analysis.
Mass spectrometry data acquisition. Tryptic peptides were analyzed on an Orbitrap Lumos coupled to an easy nLC 1200 (ThermoFisher Scientific) using a 35 cm long, 75 µm ID fused-

Jurkat cells = assay: CellTiterGlo cell viability assay; format: cell-based, human; conditions: 24 h; for IC50: Homo sapiens, read-out: IC50±sd/μM (cell viability)
Method in brief: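 Jurkat cells treated with compound titrations; viability read by CellTiter-Glo 2.0 luminescence after 10 min at room temperature, fitted to a four-parameter curve. Proteomics samples lysed in 2% SDS, 50 mM Tris pH 8.5, TCEP and CAA, sonicated, then analysed by label-free quantitation.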

[2] = AURKA intact (IC50±sd)/μM, intact cells
[3] = AURKA permeabilized (IC50±sd)/μM, permeabilized cells
[4] = protein TRBV12-3;TRBV12-4, 1 µM, set1.2
[5] = protein UQCRHL;UQCRH, 1µM, set6
[6] = protein hCG_2014768;TMA7, 1µM, set6
[7] = mean of triplicates, ^b/^c values estimated

VHL, sequence (P40337 whole entry, the tested form may be a part): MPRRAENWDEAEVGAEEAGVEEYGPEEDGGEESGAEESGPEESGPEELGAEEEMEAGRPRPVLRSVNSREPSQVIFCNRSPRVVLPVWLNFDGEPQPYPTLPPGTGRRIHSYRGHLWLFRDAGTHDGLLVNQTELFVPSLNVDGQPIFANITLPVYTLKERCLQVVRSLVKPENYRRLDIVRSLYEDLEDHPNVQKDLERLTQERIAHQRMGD

| SMILES | IC50 (AURKA; [2]) [µM] | IC50 (AURKA; [3]) [µM] | IC50 (VHL) [µM] | IC50 (Jurkat cells; [7]) [µM] | kinase degradation [1] | further results |
| --- | --- | --- | --- | --- | --- | --- |
| Cc1ncsc1-c1ccc(CNC(=O)[C@@H]2C[C@@H](O)CN2C(=O)[C@@H](NC(=O)CCOCCOCCOCCN2CCN(c3cc(Nc4cc(C5CC5)[nH]n4)nc(Nc4ccc(CC#N)cc4)n3)CC2)C(C)(C)C)cc1 [4-a] | 3.68 ± 0.085 | 1.34 ± 0.271 | 1.13 ± 0.132 | – | more kinases were degraded | AURKA degradation in proteomic experiments [1]: degradation levels close to the set cutoff; log2FC (compound/DMSO) ([1]; protein NUDT4, 1 µM, set1.2): -0.1286; log2FC (compound/DMSO) ([1]; protein PIGBOS1, 1 µM, set1.2): -0.1403; log2FC (compound/DMSO) ([1]; protein TRAV8-2, 1 µM, set1.2): 0.1127; log2FC (compound/DMSO) [1, 4]: 0.03022 |
| Cc1ncsc1-c1ccc(CNC(=O)[C@@H]2C[C@H](O)CN2C(=O)[C@@H](NC(=O)CCOCCOCCOCCN2CCN(c3cc(Nc4cc(C5CC5)[nH]n4)nc(Nc4ccc(CC#N)cc4)n3)CC2)C(C)(C)C)cc1 [4-a^neg] | – | – | – | – | inactive | log2FC (compound/DMSO) ([1]; protein NUDT4, 1µM, set6): 0.1377; log2FC (compound/DMSO) ([1]; protein TRAV8-2, 1µM, set6): -0.04256; log2FC (compound/DMSO) [1, 5]: 0.1443; log2FC (compound/DMSO) [1, 6]: -0.0883 |
| CC(C)(C)OC(=O)NCCCOCCOCCOCCCNC(=O)c1cc(Nc2cc(C3CC3)[nH]n2)nc(Nc2ccc(CC#N)cc2)n1 [5-L] | ~19.7 | ~7.05 | – | 5.7 ± 1.5 | – | – |
| Cc1ncsc1-c1ccc(CNC(=O)[C@@H]2C[C@@H](O)CN2C(=O)[C@@H](NC(=O)CCOCCOCCNC(=O)c2cc(Nc3cc(C4CC4)[nH]n3)nc(Nc3ccc(CC#N)cc3)n2)C(C)(C)C)cc1 [5-a] | – | ~16.9 | 1.22 ± 0.665 | – | – | AURKA intact (IC50±sd)/μM (AURKA; intact cells): outside the assay window; log2FC (compound/DMSO) ([1]; protein NUDT4, 1 µM, set1.2): -0.04256; log2FC (compound/DMSO) ([1]; protein PIGBOS1, 1 µM, set1.2): -0.1976; log2FC (compound/DMSO) ([1]; protein TRAV8-2, 1 µM, set1.2): 0.04739; log2FC (compound/DMSO) [1, 4]: 0.03953 |
| CC(=O)N[C@H](C(=O)N1C[C@H](O)C[C@H]1C(=O)NCc1ccc(-c2scnc2C)cc1OCCOCCOCCOCCNC(=O)c1cc(Nc2cc(C3CC3)[nH]n2)nc(Nc2ccc(CC#N)cc2)n1)C(C)(C)C [5-b] | ~18.5 | ~7.78 | 0.972 ± 0.094 | ~18.7 | – | – |
| Cc1ncsc1-c1ccc(CNC(=O)[C@@H]2C[C@H](O)CN2C(=O)[C@@H](NC(=O)CCOCCOCCOCCOCCN2CCN(c3ccc(Nc4ncc(Cl)c(Nc5ccccc5C(N)=O)n4)cc3)CC2)C(C)(C)C)cc1 [6-b^neg] | – | – | – | – | inactive | log2FC (compound/DMSO) ([1]; protein NUDT4, 1µM, set6): -0.02087; log2FC (compound/DMSO) ([1]; protein TRAV8-2, 1µM, set6): 0.09325; log2FC (compound/DMSO) [1, 5]: 0.1465; log2FC (compound/DMSO) [1, 6]: -0.2041 |
| CC(=O)N[C@H](C(=O)N1C[C@H](O)C[C@H]1C(=O)NCc1ccc(-c2scnc2C)cc1OCCOCCOCCOCCOCCC(=O)N1CCN(c2ccc(Nc3ncc(Cl)c(Nc4ccccc4C(N)=O)n3)cc2)CC1)C(C)(C)C [6-e] | ~2.2 | 0.861 ± 0.251 | 1.4 ± 0.174 | – | – | effect on cell viability (cytotoxicity) (Jurkat cells): no cytotoxicity was observed |

Continued, in another order:

| IC50 (AURKA; [2]) [µM] | IC50 (AURKA; [3]) [µM] | IC50 (VHL) [µM] | IC50 (Jurkat cells; [7]) [µM] | SMILES | kinase degradation [1] | further results |
| --- | --- | --- | --- | --- | --- | --- |
| 1.92 ± 0.07 | 0.63 ± 0.021 | – | – | CC(C)(C)OC(=O)NCCOCCOCCOCCOCCC(=O)N1CCN(c2cc(Nc3cc(C4CC4)[nH]n3)nc(Nc3ccc(CC#N)cc3)n2)CC1 [4-L] | – | – |
| 0.416 ± 0.031 | 0.254 ± 0.08 | 1.41 ± 0.083 | 3.1 ± 0.8 | Cc1ncsc1-c1ccc(CNC(=O)[C@@H]2C[C@@H](O)CN2C(=O)[C@@H](NC(=O)CCOCCOCCOCCOCCN2CCN(c3ccc(Nc4ncc(Cl)c(Nc5ccccc5C(N)=O)n4)cc3)CC2)C(C)(C)C)cc1 [6-b] | more kinases were degraded | AURKA degradation in proteomic experiments [1]: degradation levels close to the set cutoff; log2FC (compound/DMSO) ([1]; protein NUDT4, 1 µM, set1.2): 0.1389; log2FC (compound/DMSO) ([1]; protein PIGBOS1, 1 µM, set1.2): -0.2513; log2FC (compound/DMSO) ([1]; protein TRAV8-2, 1 µM, set1.2): -0.01025; log2FC (compound/DMSO) [1, 4]: 0.04941 |
| 0.372 ± 0.014 | 0.249 ± 0.011 | 5.83 ± 1.43 | ~0.1 | Cc1ncsc1-c1ccc(CNC(=O)[C@@H]2C[C@@H](O)CN2C(=O)[C@@H](NC(=O)CCCCCCN2CCN(c3ccc(Nc4ncc(Cl)c(Nc5ccccc5C(N)=O)n4)cc3)CC2)C(C)(C)C)cc1 [6-d] | – | effect on cell viability (cytotoxicity) (Jurkat cells): particularly pronounced effects on cell viability; log2FC (compound/DMSO) ([1]; protein NUDT4, 1µM, set6): 0.05822; log2FC (compound/DMSO) ([1]; protein TRAV8-2, 1µM, set6): -0.03607; log2FC (compound/DMSO) [1, 5]: -0.2976; log2FC (compound/DMSO) [1, 6]: -0.5377 |
| 0.577 ± 0.391 | 0.507 ± 0.079 | – | 3.1 ± 1 | CCOC(=O)c1cc(Nc2cc(C3CC3)[nH]n2)nc(Nc2ccc(CC#N)cc2)n1 [compound 5] | – | IC50±sd/μM (cell viability) (Jurkat cells; [7]): single-digit micromolar |
